{"source": "patent US20120214862A1", "about": "“MODULATION OF FACTOR 7 EXPRESSION” (ISIS Pharmaceuticals, Inc., priority 2009, published 2012)", "key": {"[1]": {"tested_on": "intrinsic pathway of blood coagulation", "assay": "Activated Partial Thromboplastin Time (aPTT) in platelet poor plasma of treated mice, reported as INR", "format": "in vivo, mouse", "description": "Prothrombin Time (PT) and Activated Partial Thromboplastin Time (aPTT) were measured using platelet poor plasma (PPP) from mice treated with ISIS 403102. PT and aPTT values provided in Table 20 are reported as International Normalized Ratio (INR) values. INR values for PT and aPTT were determined by dividing the PT or aPTT value for the experimental group by the PT or aPTT for the PBS treated group. This ratio was then raised to the power of the International Sensitivity Index (ISI) of the tissue factor used.\nProthrombin Time (PT) and Activated Partial Thromboplastin Time (aPTT) were measured using platelet poor plasma (PPP) from mice treated with ISIS 403102. PT and aPTT values provided in Table 22 are reported as International Normalized Ratio (INR) values. INR values for PT and aPTT were determined by dividing the PT or aPTT value for the experimental group (i.e. 50 mg/kg treatment with ISIS 403102) by the PT or aPTT for the PBS treated group. This ratio was then raised to the power of the International Sensitivity Index (ISI) of the tissue factor used.\nProthrombin Time (PT) and Activated Partial Thromboplastin Time (aPTT) were measured using platelet poor plasma (PPP) from mice treated with ISIS 403102. PT and aPTT values provided in Table 24 are reported as International Normalized Ratio (INR) values. INR values for PT and aPTT were determined by dividing the PT or aPTT value for the experimental group (i.e. 50 mg/kg treatment with ISIS 403102) by the PT or aPTT for the PBS treated group. This ratio was then raised to the power of the International Sensitivity Index (ISI) of the tissue factor used."}, "platelet factor-4 (PF-4)": {"tested_on": "platelet factor-4 (PF-4)", "assay": "FeCl3 induced venous thrombosis (VT) model, real-time RT-PCR quantification of PF-4 in vena cava as measure of thrombus formation", "format": "in vivo, mouse", "settings": "for PF-4 (percent of PF-4 mRNA as compared to the PBS + FeCl3 control) / PF-4 (percentage compared to PBS controls): BALB/c mice; for PF-4 (percent of PF-4 mRNA as compared to the PBS + FeCl3 control): no Plavix; for PF-4 (percentage compared to PBS controls): vena cava", "description": "Two control groups of BALB/c mice were treated with PBS, administered subcutaneously twice a week for 3 weeks. Thrombus formation was induced with FeCl3 in half of the mice while the rest of the mice were assayed for tail bleeding. […] Thrombus formation was induced with FeCl3 in all groups of the VT mice except the first control group.\nIn mice undergoing FeCl3 treatment, thrombus formation was induced by applying a piece of filter paper ([…]) pre-saturated with 10% FeCl3 solution directly on the vena cava. After 3 minutes of exposure, the filter paper was removed. Thirty minutes after the filter paper application, a fixed length of the vein containing the thrombus was dissected out for platelet analysis. Liver was collected for RNA analysis.\n(§1) Real-time RT-PCR quantification of platelet factor-4 (PF-4) was used to quantify platelets in the vena cava as a measure of thrombus formation.\nSix additional groups of BALB/c mice was treated with 0.5 mg/kg, 1 mg/kg, 2 mg·kg, 3 mg/kg, 4 mg/kg, or 5 mg/kg of warfarin, administered intraperioneally daily for 6 days. Four hours after the last dose of warfarin, mice were sacrificed. A control group of BALB/c mice were treated with PBS, administered subcutaneously twice a week for 3 weeks. Two days after the last dose of PBS, mice were anesthetized with 150 mg/kg ketamine mixed with 10 mg/kg xylazine administered by intraperitoneal injection. Thrombus formation was induced with FeCl3 in groups of mice except the first control group.\nIn mice undergoing FeCl3 treatment, thrombus formation was induced by applying a piece of filter paper (2×4 mm) pre-saturated with 10% FeCl3 solution directly on the vena cava. After 3 minutes of exposure, the filter paper was removed. Thirty minutes after the filter paper application, a fixed length of the vein containing the thrombus was dissected out for platelet analysis. Liver was collected for RNA analysis.\nas §1\nThrombus formation was induced with FeCl3 in all of the mice except the first […] control groups. All mice were anesthetized with 150 mg/kg of ketamine mixed with 10 mg/kg of xylazine administered by intraperitoneal injection.\nAfter 3 minutes of exposure, the filter paper was removed. Thirty minutes after the filter paper application, a fixed length of the vein containing the thrombus was dissected out for platelet analysis.\nReal-time PCR quantification of PF-4 was used to quantify platelets in the vena cava as a measure of thrombus formation. […] Data is presented as percent of PF-4 mRNA as compared to the PBS+ FeCl3 control, […]"}}, "note": "e = 2'-O-(2-methoxyethyl) (MOE); d = 2'-deoxy (DNA)"}
{"sequence": "CCATAGAACAGCTTCACAGG (sugars from the 5' end e5 d10 e5, backbone and methylation of C not given here) [ISIS 403102]", "values": [{"measurement": "aPTT INR", "setting": "[1]; BALB/c mice, 5 mg/kg s.c. twice a week for 3 weeks", "result": 1.05}, {"measurement": "aPTT INR", "setting": "[1]; BALB/c mice, 10 mg/kg s.c. twice a week for 3 weeks", "result": 1.04}, {"measurement": "aPTT INR", "setting": "[1]; BALB/c mice, 25 mg/kg s.c. twice a week for 3 weeks", "result": 1.09}, {"measurement": "aPTT INR", "setting": "[1]; BALB/c mice, 50 mg/kg s.c. twice a week for 3 weeks", "result": 1.16}, {"measurement": "aPTT INR", "setting": "[1]; BALB/c mice, 50 mg/kg, 1 dose, 1 day after last dose", "result": 1.08}, {"measurement": "aPTT INR", "setting": "[1]; BALB/c mice, 50 mg/kg, 1 dose, 3 days after last dose", "result": 1.10}, {"measurement": "aPTT INR", "setting": "[1]; BALB/c mice, 50 mg/kg, 2 doses, 3 days after last dose", "result": 1.29}, {"measurement": "aPTT INR", "setting": "[1]; BALB/c mice, 50 mg/kg, 4 doses, 3 days after last dose", "result": 1.53}, {"measurement": "aPTT INR", "setting": "[1]; BALB/c mice, 50 mg/kg, 6 doses, 2 days after last dose", "result": 1.62}, {"measurement": "aPTT INR", "setting": "[1]; BALB/c mice, 50 mg/kg, 6 doses, 7 days after last dose", "result": 1.67}, {"measurement": "aPTT INR", "setting": "[1]; BALB/c mice, 50 mg/kg, 6 doses, 14 days after last dose", "result": 1.25}, {"measurement": "aPTT INR", "setting": "[1]; BALB/c mice, 50 mg/kg, 6 doses, 28 days after last dose", "result": 0.90}, {"measurement": "aPTT INR", "setting": "[1]; BALB/c mice, 50 mg/kg, 6 doses, 42 days after last dose", "result": 1.00}, {"measurement": "aPTT INR", "setting": "[1]; BALB/c mice, 50 mg/kg, 6 doses, 56 days after last dose", "result": 0.98}, {"measurement": "aPTT INR", "setting": "[1]; BALB/c mice, single dose 50 mg/kg, day 1", "result": 1.00}, {"measurement": "aPTT INR", "setting": "[1]; BALB/c mice, single dose 50 mg/kg, day 2", "result": 1.05}, {"measurement": "aPTT INR", "setting": "[1]; BALB/c mice, single dose 50 mg/kg, day 3", "result": 1.24}, {"measurement": "aPTT INR", "setting": "[1]; BALB/c mice, single dose 50 mg/kg, day 4", "result": 1.15}, {"measurement": "aPTT INR", "setting": "[1]; BALB/c mice, single dose 50 mg/kg, day 6", "result": 1.23}, {"measurement": "aPTT INR", "setting": "[1]; BALB/c mice, single dose 50 mg/kg, day 8", "result": 1.18}, {"measurement": "aPTT INR", "setting": "[1]; BALB/c mice, single dose 50 mg/kg, day 12", "result": 1.18}, {"measurement": "aPTT INR", "setting": "[1]; BALB/c mice, single dose 50 mg/kg, day 24", "result": 1.02}, {"measurement": "aPTT INR", "setting": "[1]; BALB/c mice, single dose 50 mg/kg, day 56", "result": 0.97}, {"measurement": "aPTT compared to the control", "setting": "[1]; Example 11, 5-50 mg/kg sc twice a week for 3 weeks", "result": "slightly prolonged"}, {"measurement": "aPTT over time", "setting": "[1]; Example 13, 6 doses, day 7 to day 56", "result": "aPTT decreased"}, {"measurement": "aPTT INR", "setting": "[1]; single dose 50 mg/kg, day 4", "result": 1.24, "unit": "INR"}, {"measurement": "aPTT INR", "setting": "[1]; single dose 50 mg/kg, day 56", "result": 0.97, "unit": "INR"}, {"measurement": "aPTT INR", "setting": "[1]; single dose 50 mg/kg, starting value (day not given, day 1 implied)", "result": 1.00, "unit": "INR"}, {"measurement": "PF-4 (percent of PF-4 mRNA as compared to the PBS + FeCl3 control)", "setting": "platelet factor-4 (PF-4); with FeCl3, ISIS 403102 20 mg/kg s.c. twice a week for three weeks", "result": 39, "unit": "%"}, {"measurement": "PF-4 (percent of PF-4 mRNA as compared to the PBS + FeCl3 control)", "setting": "platelet factor-4 (PF-4); without FeCl3, ISIS 403102 20 mg/kg s.c. twice a week for three weeks", "result": 2, "unit": "%"}, {"measurement": "PF-4 in comparison to the PBS control", "setting": "platelet factor-4 (PF-4); Example 14, 25, 37.5 or 50 mg/kg sc twice a week for 3 weeks", "result": "reduction of PF-4"}, {"measurement": "PF-4 in comparison to the PBS control", "setting": "platelet factor-4 (PF-4); Example 16, dosages of 5 mg/kg and higher, sc twice a week for 3 weeks", "result": "dose-dependent reduction of PF-4"}, {"measurement": "PF-4 (percentage compared to PBS controls)", "setting": "platelet factor-4 (PF-4); FeCl3 (Example 16), 1 mg/kg s.c. twice a week for 3 weeks", "result": 120, "unit": "%"}, {"measurement": "PF-4 (percentage compared to PBS controls)", "setting": "platelet factor-4 (PF-4); FeCl3 (Example 16), 3 mg/kg s.c. twice a week for 3 weeks", "result": 112, "unit": "%"}, {"measurement": "PF-4 (percentage compared to PBS controls)", "setting": "platelet factor-4 (PF-4); FeCl3 (Example 16), 5 mg/kg s.c. twice a week for 3 weeks", "result": 69, "unit": "%"}, {"measurement": "PF-4 (percentage compared to PBS controls)", "setting": "platelet factor-4 (PF-4); FeCl3 (Example 16), 10 mg/kg s.c. twice a week for 3 weeks", "result": 22, "unit": "%"}, {"measurement": "PF-4 (percentage compared to PBS controls)", "setting": "platelet factor-4 (PF-4); FeCl3 (Example 16), 20 mg/kg s.c. twice a week for 3 weeks", "result": 41, "unit": "%"}, {"measurement": "PF-4 (percentage compared to PBS controls)", "setting": "platelet factor-4 (PF-4); FeCl3 (Example 16), 40 mg/kg s.c. twice a week for 3 weeks", "result": 38, "unit": "%"}, {"measurement": "PF-4 (percentage compared to PBS controls)", "setting": "platelet factor-4 (PF-4); FeCl3, 25 mg/kg s.c. twice a week for 3 weeks", "result": 34, "unit": "%"}, {"measurement": "PF-4 (percentage compared to PBS controls)", "setting": "platelet factor-4 (PF-4); FeCl3, 37.5 mg/kg s.c. twice a week for 3 weeks", "result": 24, "unit": "%"}, {"measurement": "PF-4 (percentage compared to PBS controls)", "setting": "platelet factor-4 (PF-4); FeCl3, 50 mg/kg s.c. twice a week for 3 weeks", "result": 24, "unit": "%"}]}
